Results taken from patent publication US20220362264A1, “ABIRATERONE-CYCLIC OLIGOMER PHARMACEUTICAL FORMULATIONS AND METHODS OF FORMATION AND ADMINISTRATION THEREOF” (DISPERSOL TECHNOLOGIES, LLC., priority 2019, published 2022).

How the values were obtained:
[1] = tested on: prostate specific antigen (PSA); conditions: 1,000 mg daily, well controlled trials; cited from earlier work
[2] = tested on: 22RV1 human prostate tumor xenograft; assay: Anti-tumor activity in 22RV1 human prostate tumor xenograft model; assay type: in vivo, CB.17 SCID mice; conditions: low and high doses, once-daily oral gavage
Method: The objective of the xenograft mice study was to determine the anti-tumor activity of a composition made per Example 2.4 as a single agent versus abiraterone acetate in the 22RV1 human prostate tumor xenograft model. The study was conducted in CB.17 SCID mice injected with 22RV1 cells (5×10^6 cells/mouse) in the subcutaneous right flank. Tumors were grown to a mean tumor size between 100 and 150 mm^3 prior to study enrollment. The mice were dosed with the test article and reference once-daily by oral gavage per Table 12. Tumor volume was measured throughout the study. The study was terminated on day 26 when mean tumor volume of two experimental groups reached≥1500 mm^3.

[3] = cited from earlier work
[4] = Phase solubility analysis of abiraterone-HPBCD; assay type: physicochemical; conditions: with HPBCD, in 0.01N HCl and FaSSIF
Method: Phase Solubility Analysis. Phase solubility analysis was conducted in two separate media, i.e., 0.01N HCl (pH 2.0) and FaSSIF (prepared in 50 mMol Phosphate Buffer pH 6.8). Solutions of HPBCD ranging from 0 mg/mL to 600 mg/mL were prepared in each media in scintillation vials. An excess of abiraterone was added to each vial and the vials were sonicated for 30 minutes and placed on a bench. Samples were pulled from each vial at time points of 48 hrs and 7 days. The samples were centrifuged using an ultracentrifuge (Eppendrof, Hamburg, Germany) The supernatants were further diluted using the HPLC diluent and analyzed by HPLC method mentioned above to find the concentration of abiraterone.

type of solution state phase solubility profile (Higuchi and Connors) [4]	SMILES	treated patients achieving target PSA reductions [1]	tumor growth relative to vehicle control [2]	pKa [3]
	CC(=O)O[C@H]1CC[C@@]2(C)C(=CC[C@@H]3[C@@H]2CC[C@]2(C)C(c4cccnc4)=CC[C@@H]32)C1 [Abiraterone Acetate, (3β)-17-(3-pyridinyl)androsta-5, 16-dien-3-ol acetate]	up to 60%	did not result in statistically different tumor growth	
A-type	C[C@]12CC[C@H](O)CC1=CC[C@@H]1[C@@H]2CC[C@]2(C)C(c3cccnc3)=CC[C@@H]12 [Abiraterone, (3β)-17-(3-pyridinyl)androsta-5,16-dien-3-ol]			4.81
